Measured values taken from ChEMBL document CHEMBL3792297, “Studies on phenothiazines: New microtubule-interacting compounds with phenothiazine A-ring as potent antineoplastic agents” (Bioorg Med Chem, 2016).

What was measured:
Format in all cases: functional
[1] = Growth inhibition of human UO31 cells at 10 uM after 48 hrs by SRB assay relative to control; conditions: UO-31, 48 h, read-out: GI
MDA-MB-468 = experiment: Growth inhibition of human MDA-MB-468 cells at 10 uM after 48 hrs by SRB assay relative to control; conditions: MDA-MB-468, 48 h, read-out: GI
[2] = Growth inhibition of human UACC62 cells at 10 uM after 48 hrs by SRB assay relative to control; conditions: UACC-62, 48 h, read-out: GI
[3] = Growth inhibition of human PC3 cells at 10 uM after 48 hrs by SRB assay relative to control; conditions: PC-3, 48 h, read-out: GI
CCRF-CEM = experiment: Growth inhibition of human CCRF-CEM cells at 10 uM after 48 hrs by SRB assay relative to control; conditions: read-out: GI
[4] = Growth inhibition of human SF268 cells at 10 uM after 48 hrs by SRB assay relative to control; conditions: SF-268, 48 h, read-out: GI
[5] = Growth inhibition of human MOLT4 cells at 10 uM after 48 hrs by SRB assay relative to control; conditions: MOLT-4, 48 h, read-out: GI
NCI-H23 = experiment: Growth inhibition of human NCI-H23 cells at 10 uM after 48 hrs by SRB assay relative to control; conditions: NCI-H23, 48 h, read-out: GI
[6] = Growth inhibition of human IGROV1 cells at 10 uM after 48 hrs by SRB assay relative to control; conditions: IGROV-1, 48 h, read-out: GI
MCF7 = experiment: Growth inhibition of human MCF7 cells at 10 uM after 48 hrs by SRB assay relative to control; conditions: MCF7, 48 h, read-out: GI
KM12 = experiment: Growth inhibition of human KM12 cells at 10 uM after 48 hrs by SRB assay relative to control; conditions: KM12, 48 h, read-out: GI
[7] = Growth inhibition of human HCT116 cells at 10 uM after 48 hrs by SRB assay relative to control; conditions: HCT-116, 48 h, read-out: GI
[8] = Growth inhibition of human HOP62 cells at 10 uM after 48 hrs by SRB assay relative to control; conditions: HOP-62, 48 h, read-out: GI
[9] = Growth inhibition of human TK10 cells at 10 uM after 48 hrs by SRB assay relative to control; conditions: TK-10, 48 h, read-out: GI
[10] = Growth inhibition of human OVCAR8 cells at 10 uM after 48 hrs by SRB assay relative to control; conditions: OVCAR-8, 48 h, read-out: GI
[11] = Growth inhibition of human NCI-ADR-RES cells at 10 uM after 48 hrs by SRB assay relative to control; conditions: read-out: GI
[12] = Growth inhibition of human SNB19 cells at 10 uM after 48 hrs by SRB assay relative to control; conditions: SNB-19, 48 h, read-out: GI
[13] = Growth inhibition of human RPMI8226 cells at 10 uM after 48 hrs by SRB assay relative to control; conditions: RPMI-8226, 48 h, read-out: GI
[14] = Growth inhibition of human HL-60(TB) cells at 10 uM after 48 hrs by SRB assay relative to control; conditions: HL-60, 48 h, read-out: GI
[15] = Growth inhibition of human HCT15 cells at 10 uM after 48 hrs by SRB assay relative to control; conditions: HCT-15, 48 h, read-out: GI
NCI-H226 = experiment: Growth inhibition of human NCI-H226 cells at 10 uM after 48 hrs by SRB assay relative to control; conditions: NCI-H226, 48 h, read-out: GI
[16] = Growth inhibition of human SW620 cells at 10 uM after 48 hrs by SRB assay relative to control; conditions: SW-620, 48 h, read-out: GI
SN12C = experiment: Growth inhibition of human SN12C cells at 10 uM after 48 hrs by SRB assay relative to control; conditions: read-out: GI
U-251 = experiment: Growth inhibition of human U251 cells at 10 uM after 48 hrs by SRB assay relative to control; conditions: U-251, 48 h, read-out: GI
[17] = Growth inhibition of human Hs 578T cells at 10 uM after 48 hrs by SRB assay relative to control; conditions: read-out: GI
[18] = Growth inhibition of human HCC2998 cells at 10 uM after 48 hrs by SRB assay relative to control; conditions: HCC 2998, 48 h, read-out: GI
SK-MEL-2 = experiment: Growth inhibition of human SK-MEL-2 cells at 10 uM after 48 hrs by SRB assay relative to control; conditions: SK-MEL-2, 48 h, read-out: GI
[19] = Growth inhibition of human SF295 cells at 10 uM after 48 hrs by SRB assay relative to control; conditions: SF-295, 48 h, read-out: GI
[20] = Growth inhibition of human COLO205 cells at 10 uM after 48 hrs by SRB assay relative to control; conditions: COLO 205, 48 h, read-out: GI
NCI-H322M = experiment: Growth inhibition of human NCI-H322M cells at 10 uM after 48 hrs by SRB assay relative to control; conditions: read-out: GI
[21] = Growth inhibition of human LOXIMVI cells at 10 uM after 48 hrs by SRB assay relative to control; conditions: LOX IMVI, read-out: GI
[22] = Growth inhibition of human UACC257 cells at 10 uM after 48 hrs by SRB assay relative to control; conditions: UACC-257, 48 h, read-out: GI
A549 = experiment: Growth inhibition of human A549 cells at 10 uM after 48 hrs by SRB assay relative to control; conditions: A549, 48 h, read-out: GI
SK-MEL-28 = experiment: Growth inhibition of human SK-MEL-28 cells at 10 uM after 48 hrs by SRB assay relative to control; conditions: SK-MEL-28, 48 h, read-out: GI

Structure (SMILES)	inhibition of growth at 10 µM [1]	inhibition of growth at 10 µM (MDA-MB-468)	inhibition of growth at 10 µM [2]	inhibition of growth at 10 µM [3]	inhibition of growth at 10 µM (CCRF-CEM)	inhibition of growth at 10 µM [4]	inhibition of growth at 10 µM [5]	inhibition of growth at 10 µM (NCI-H23)	inhibition of growth at 10 µM [6]	inhibition of growth at 10 µM (MCF7)	inhibition of growth at 10 µM (KM12)	inhibition of growth at 10 µM [7]	inhibition of growth at 10 µM [8]	inhibition of growth at 10 µM [9]	inhibition of growth at 10 µM [10]	inhibition of growth at 10 µM [11]	inhibition of growth at 10 µM [12]	inhibition of growth at 10 µM [13]	inhibition of growth at 10 µM [14]	inhibition of growth at 10 µM [15]	also measured
COc1ccc(C(=O)c2ccc3c(c2)Sc2cc(C(=O)c4ccc(OC)c(F)c4)ccc2N3C)cc1F	1%	13%	0%	3%	0%	0%	0%	4%	0%	7%	0%	2%	6%	7%	6%	0%	6%	0%	0%	0%	inhibition of growth at 10 µM (NCI-H226): 0%; inhibition of growth at 10 µM [16]: 0%; inhibition of growth at 10 µM (SN12C): 2%; inhibition of growth at 10 µM (U-251): 10%; inhibition of growth at 10 µM [17]: 17%; inhibition of growth at 10 µM [18]: 0%; inhibition of growth at 10 µM (SK-MEL-2): 4%; inhibition of growth at 10 µM [19]: 0%; inhibition of growth at 10 µM [20]: 0%; inhibition of growth at 10 µM (NCI-H322M): 0%; inhibition of growth at 10 µM [21]: 0%; inhibition of growth at 10 µM [22]: 11%; inhibition of growth at 10 µM (A549): 15%; inhibition of growth at 10 µM (SK-MEL-28): 0%
COc1ccc(C(=O)c2ccc3c(c2)Sc2ccccc2N3C)cc1F	2%	55%	26%	21%	12%	2%	17%	13%	7%	37%	30%	17%	17%	8%	4%	32%	15%	5%	0%	36%	inhibition of growth at 10 µM (NCI-H226): 15%; inhibition of growth at 10 µM [16]: 27%; inhibition of growth at 10 µM (SN12C): 13%; inhibition of growth at 10 µM (U-251): 18%; inhibition of growth at 10 µM [17]: 7%; inhibition of growth at 10 µM [18]: 5%; inhibition of growth at 10 µM (SK-MEL-2): 17%; inhibition of growth at 10 µM [19]: 16%; inhibition of growth at 10 µM [20]: 34%; inhibition of growth at 10 µM (NCI-H322M): 5%; inhibition of growth at 10 µM [21]: 21%; inhibition of growth at 10 µM [22]: 8%; inhibition of growth at 10 µM (A549): 44%; inhibition of growth at 10 µM (SK-MEL-28): 13%
